Measured values as given in US9944677B2, “Selective inhibitor of angiotensin II” (GEORGETOWN UNIVERSITY, priority 2013, dated 2018).
Ends that are not written are not given here.

Test system: rats
Assay: Behavioral arousal, locomotion and grooming behavior
Conditions: rat, in vivo

- Effect on behavioral arousal, locomotion and grooming behavior: did not have an effect
Substance: MAGILSG [PEP7, MAGILSG (SEQ ID NO: 1)]
